Data taken from the supplement of paper PMC10331698.
± gives the standard deviation of the averaged measurements.

Columns and labels:
Assay in all cases: level (log10 ratio to DMSO vehicle control); higher = higher biomarker level / cell amount than vehicle control
[1] = compound: NS(=O)(=O)C(F)(F)C(F)(F)C(F)(F)C(F)(F)C(F)(F)C(F)(F)F [Perfluorohexanesulfonamide]; settings: in DMSO
Protocol: (§1)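 BioMAP Diversity Plus panel of 12 human primary cell co-culture systems (3C, 4H, LPS, SAg, BT, BF4T, BE3C, CASM3C, HDF3CGF, KF3CT, MyoF, Mphg). Compounds were added 1 h before stimulation and left for 24 h (MyoF 48 h; BT 72 h for soluble read-outs or 6 d for IgG). Biomarkers were read by ELISA, cytotoxicity by SRB, PBMC viability and proliferation by Alamar Blue. Each well value was divided by the mean of 8 DMSO control wells on the same plate and log10 transformed; duplicate blinded samples were tested at 4 concentrations.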

[2] = compound: O=S(=O)(Cl)C(F)(F)C(F)(F)C(F)(F)C(F)(F)C(F)(F)C(F)(F)C(F)(F)C(F)(F)F [Perfluoro-1-octanesulfonyl chloride]; settings: in DMSO
Protocol: as §1

[3] = compound: FC(F)(F)C(F)(F)C(F)(F)C(F)(F)C(F)(F)C(F)(F)CC1CO1 [3-(Perfluorohexyl)-1,2-epoxypropane]; settings: in DMSO
Protocol: as §1

[4] = compound: FC(F)(F)C(F)(F)C(F)(F)C(F)(F)C(F)(F)C(F)(F)C(F)(F)I [1-Iodopentadecafluoroheptane]; settings: in DMSO
Protocol: as §1

[5] = compound: FC(F)(F)C(F)(F)C(F)(F)CC1CO1 [1H,1H-Heptafluorobutyl epoxide]; settings: in DMSO
Protocol: as §1

Octafluoroadipamide = compound: NC(=O)C(F)(F)C(F)(F)C(F)(F)C(F)(F)C(N)=O [Octafluoroadipamide]; settings: in DMSO
Protocol: as §1

[6] = compound: O=S(=O)(F)C(F)(F)C(F)(F)C(F)(F)C(F)(F)C(F)(F)C(F)(F)C(F)(F)C(F)(F)F [Perfluorooctanesulfonyl fluoride]; settings: in DMSO
Protocol: as §1

[7] = compound: COC(=O)C(F)(F)C(F)(F)OC(F)(C(F)(F)F)C(F)(F)OC(F)=C(F)F [Methyl perfluoro(3-(1-ethenyloxypropan-2-yloxy)propanoate)]; settings: in DMSO
Protocol: as §1

[8] = compound: NC(=O)C(F)(F)C(F)(F)C(F)(F)C(F)F; settings: in DMSO
Protocol: as §1

[9] = compound: O=S(=O)(O)C(F)(F)C(F)(F)C(F)(F)C(F)(F)C(F)(F)C(F)(F)C(F)(F)C(F)(F)C(F)(F)C(F)(F)F [Sodium perfluorodecanesulfonate]; settings: in DMSO
Protocol: as §1

[10] = compound: O=S(=O)(O)CCC(F)(F)C(F)(F)C(F)(F)C(F)(F)C(F)(F)C(F)(F)F [6:2 Fluorotelomer sulfonic acid]; settings: in DMSO
Protocol: as §1

Heptafluorobutyl iodide = compound: FC(F)(F)C(F)(F)C(F)(F)CI [Heptafluorobutyl iodide]; settings: in DMSO
Protocol: as §1

Nonafluoropentanamide = compound: NC(=O)C(F)(F)C(F)(F)C(F)(F)C(F)(F)F [Nonafluoropentanamide]; settings: in DMSO
Protocol: as §1

[11] = compound: C=C(C)C(=O)OCCC(F)(F)C(F)(F)C(F)(F)C(F)(F)C(F)(F)C(F)(F)F [6:2 Fluorotelomer methacrylate]; settings: in DMSO
Protocol: as §1

[12] = compound: C=CC(=O)OCC(F)(F)C(F)(F)C(F)(F)COC(=O)C=C [1H,1H,5H,5H-Perfluoro-1,5-pentanediol diacrylate]; settings: 6700 nM; in DMSO
Protocol: as §1

[13] = compound: O=C(O)C(F)(F)C(F)(F)C(F)(F)C(F)(F)C(F)(F)C(F)(F)C(F)(F)C(F)(F)C(F)(F)C(F)F [11-H-Perfluoroundecanoic acid]; settings: in DMSO
Protocol: as §1

[14] = compound: FC(F)(F)C(F)(F)CNCC(F)(F)C(F)(F)F [Bis(1H,1H-perfluoropropyl)amine]; settings: in DMSO
Protocol: as §1

Hexafluoroamylene glycol = compound: OCC(F)(F)C(F)(F)C(F)(F)CO [Hexafluoroamylene glycol]; settings: in DMSO
Protocol: as §1

[15] = compound: O=C(O)C=CC(F)(C(F)(F)F)C(F)(F)F [3-(Perfluoroisopropyl)-2-propenoic acid]; settings: in DMSO
Protocol: as §1

## MyoF:CD106/VCAM-1
[1]; 6700 nM
  level (log10): -0.0105 ± 0.021
[1]; 20000 nM
  level (log10): -0.0165 ± 0.0021
[1]; 60000 nM
  level (log10): -0.0655 ± 0.0078
[2]; 6700 nM
  level (log10): -0.0025 ± 0.0064
[2]; 20000 nM
  level (log10): 0.0025 ± 0.025
[2]; 60000 nM
  level (log10): -0.0195 ± 0.0092
[3]; 6700 nM
  level (log10): 0.002 ± 0.013
[3]; 20000 nM
  level (log10): 0.013 ± 0.013
[3]; 60000 nM
  level (log10): 0.0205 ± 0.015
[4]; 6700 nM
  level (log10): -0.091 ± 0.0057
[4]; 20000 nM
  level (log10): -0.448 ± 0.019
[5]; 6700 nM
  level (log10): -0.007 ± 0.013
[5]; 20000 nM
  level (log10): -0.007 ± 0.038
[5]; 60000 nM
  level (log10): -0.0205 ± 0.03
Octafluoroadipamide; 6700 nM
  level (log10): -0.006 ± 0.021
Octafluoroadipamide; 20000 nM
  level (log10): 0.026 ± 0.0057
Octafluoroadipamide; 60000 nM
  level (log10): 0.002 ± 0.0014
[6]; 6700 nM
  level (log10): -0.0105 ± 0.00071
[6]; 20000 nM
  level (log10): -0.0105 ± 0.005
[6]; 60000 nM
  level (log10): -0.0185 ± 0.011
[7]; 6700 nM
  level (log10): -0.03 ± 0.0014
[7]; 20000 nM
  level (log10): -0.0365 ± 0.019
[8]; 6700 nM
  level (log10): -0.0085 ± 0.013
[8]; 20000 nM
  level (log10): -0.0205 ± 0.013
[8]; 60000 nM
  level (log10): -0.0235 ± 0.013
[9]; 1500 nM
  level (log10): 0.0005 ± 0.013
[9]; 4400 nM
  level (log10): -0.0005 ± 0.013
[9]; 13000 nM
  level (log10): -0.01 ± 0.0014
[9]; 40000 nM
  level (log10): -0.035 ± 0.0085
[10]; 6700 nM
  level (log10): -0.003 ± 0.0028
[10]; 20000 nM
  level (log10): -0.012 ± 0.0099
[10]; 60000 nM
  level (log10): -0.0095 ± 0.005
Heptafluorobutyl iodide; 6700 nM
  level (log10): -0.003 ± 0.0085
Heptafluorobutyl iodide; 20000 nM
  level (log10): -0.018 ± 0.0071
Heptafluorobutyl iodide; 60000 nM
  level (log10): -0.0055 ± 0.00071
Nonafluoropentanamide; 6700 nM
  level (log10): -0.016 ± 0.0014
Nonafluoropentanamide; 20000 nM
  level (log10): -0.003
Nonafluoropentanamide; 60000 nM
  level (log10): 0.0055 ± 0.016
[11]; 6700 nM
  level (log10): -0.005 ± 0.037
[11]; 20000 nM
  level (log10): -0.0005 ± 0.036
[11]; 60000 nM
  level (log10): -0.003 ± 0.0042
[12]
  level (log10): -0.212 ± 0.015
[13]; 6700 nM
  level (log10): 0.0035 ± 0.0078
[13]; 20000 nM
  level (log10): -0.152 ± 0.02
[14]; 6700 nM
  level (log10): 0.0045 ± 0.0078
[14]; 20000 nM
  level (log10): 0.0065 ± 0.005
[14]; 60000 nM
  level (log10): 0.0095 ± 0.0021
Hexafluoroamylene glycol; 6700 nM
  level (log10): -0.0015 ± 0.0092
Hexafluoroamylene glycol; 20000 nM
  level (log10): -0.022 ± 0.02
Hexafluoroamylene glycol; 60000 nM
  level (log10): -0.0045 ± 0.015
[15]; 6700 nM
  level (log10): 0.006 ± 0.011
[15]; 20000 nM
  level (log10): 0.0035 ± 0.00071
[15]; 60000 nM
  level (log10): -0.0035 ± 0.0035

## MyoF:MMP-1
[1]; 6700 nM
  level (log10): -0.0285 ± 0.016
[1]; 20000 nM
  level (log10): -0.0215 ± 0.0035
[1]; 60000 nM
  level (log10): 0.0495 ± 0.025
[2]; 6700 nM
  level (log10): -0.013 ± 0.017
[2]; 20000 nM
  level (log10): -0.0095 ± 0.0092
[2]; 60000 nM
  level (log10): 0.0705 ± 0.061
[3]; 6700 nM
  level (log10): -0.019 ± 0.0085
[3]; 20000 nM
  level (log10): -0.02 ± 0.017
[3]; 60000 nM
  level (log10): 0.017 ± 0.055
[4]; 6700 nM
  level (log10): 0.145 ± 0.045
[4]; 20000 nM
  level (log10): 0.547 ± 0.018
[5]; 6700 nM
  level (log10): 0.01 ± 0.013
[5]; 20000 nM
  level (log10): -0.013 ± 0.051
[5]; 60000 nM
  level (log10): 0.0455 ± 0.1
Octafluoroadipamide; 6700 nM
  level (log10): 0.0115 ± 0.036
Octafluoroadipamide; 20000 nM
  level (log10): -0.0085 ± 0.0078
Octafluoroadipamide; 60000 nM
  level (log10): 0.0325 ± 0.079
[6]; 6700 nM
  level (log10): -0.0275 ± 0.013
[6]; 20000 nM
  level (log10): -0.011 ± 0.0085
[6]; 60000 nM
  level (log10): -0.007 ± 0.047
[7]; 6700 nM
  level (log10): 0.021 ± 0.035
[7]; 20000 nM
  level (log10): 0.111 ± 0.084
[8]; 6700 nM
  level (log10): -0.018 ± 0.038
[8]; 20000 nM
  level (log10): -0.034 ± 0.02
[8]; 60000 nM
  level (log10): 0.014 ± 0.028
[9]; 1500 nM
  level (log10): 0.038 ± 0.1
[9]; 4400 nM
  level (log10): -0.022 ± 0.055
[9]; 13000 nM
  level (log10): -0.012 ± 0.02
[9]; 40000 nM
  level (log10): 0.0165 ± 0.064
[10]; 6700 nM
  level (log10): -0.018 ± 0.021
[10]; 20000 nM
  level (log10): -0.058 ± 0.0042
[10]; 60000 nM
  level (log10): -0.0145 ± 0.047
Heptafluorobutyl iodide; 6700 nM
  level (log10): -0.022 ± 0.0099
Heptafluorobutyl iodide; 20000 nM
  level (log10): -0.0545 ± 0.0078
Heptafluorobutyl iodide; 60000 nM
  level (log10): -0.0125 ± 0.039
Nonafluoropentanamide; 6700 nM
  level (log10): -0.035 ± 0.037
Nonafluoropentanamide; 20000 nM
  level (log10): -0.02 ± 0.052
Nonafluoropentanamide; 60000 nM
  level (log10): -0.0055 ± 0.015
[11]; 6700 nM
  level (log10): 0.043 ± 0.0042
[11]; 20000 nM
  level (log10): 0.045 ± 0.04
[11]; 60000 nM
  level (log10): 0.018 ± 0.038
[12]
  level (log10): 0.206 ± 0.0028
[13]; 6700 nM
  level (log10): -0.076 ± 0.021
[13]; 20000 nM
  level (log10): -0.027 ± 0.04
[14]; 6700 nM
  level (log10): -0.0065 ± 0.011
[14]; 20000 nM
  level (log10): -0.01 ± 0.021
[14]; 60000 nM
  level (log10): 0.0245 ± 0.08
Hexafluoroamylene glycol; 6700 nM
  level (log10): -0.0245 ± 0.011
Hexafluoroamylene glycol; 20000 nM
  level (log10): -0.0525 ± 0.019
Hexafluoroamylene glycol; 60000 nM
  level (log10): -0.0115 ± 0.0092
[15]; 6700 nM
  level (log10): -0.0205 ± 0.021
[15]; 20000 nM
  level (log10): -0.031 ± 0.0014
[15]; 60000 nM
  level (log10): 0.006 ± 0.068
